Tested on: gene expression in C. difficile 630Δerm
Assay: RNA-seq, genes differentially expressed in LL-37
Conditions: 2 µg/ml LL-37, BHIS

Structure (SMILES): CC[C@H](C)[C@H](NC(=O)[C@H](CCCCN)NC(=O)[C@H](CCC(=O)O)NC(=O)[C@H](CCCCN)NC(=O)[C@H](CO)NC(=O)[C@H](CCCCN)NC(=O)[C@H](CCCNC(=N)N)NC(=O)[C@H](Cc1ccccc1)NC(=O)[C@H](Cc1ccccc1)NC(=O)[C@H](CC(=O)O)NC(=O)CNC(=O)[C@H](CC(C)C)NC(=O)[C@@H](N)CC(C)C)C(=O)NCC(=O)N[C@@H](CCCCN)C(=O)N[C@@H](CCC(=O)O)C(=O)N[C@@H](Cc1ccccc1)C(=O)N[C@@H](CCCCN)C(=O)N[C@@H](CCCNC(=N)N)C(=O)N[C@H](C(=O)N[C@H](C(=O)N[C@@H](CCC(N)=O)C(=O)N[C@@H](CCCNC(=N)N)C(=O)N[C@H](C(=O)N[C@@H](CCCCN)C(=O)N[C@@H](CC(=O)O)C(=O)N[C@@H](Cc1ccccc1)C(=O)N[C@@H](CC(C)C)C(=O)N[C@@H](CCCNC(=N)N)C(=O)N[C@@H](CC(N)=O)C(=O)N[C@@H](CC(C)C)C(=O)N[C@H](C(=O)N1CCC[C@H]1C(=O)N[C@@H](CCCNC(=N)N)C(=O)N[C@H](C(=O)N[C@@H](CCC(=O)O)C(=O)N[C@@H](CO)C(=O)O)[C@@H](C)O)C(C)C)[C@@H](C)CC)C(C)C)[C@@H](C)CC [LL-37]
- 23S_rRNA fold change in LL-37: 0.27
- CD630_00470 (ispD) fold change in LL-37: 0.48
- CD630_01060 (cwlD) fold change in LL-37: 0.43
- CD630_01250 fold change in LL-37: 0.44
- CD630_01631 fold change in LL-37: 0.22
- CD630_01930 (groS) fold change in LL-37: 0.46
- CD630_02910 fold change in LL-37: 3.25
- CD630_03140 fold change in LL-37: 0.41
- CD630_03240 (cbiM) fold change in LL-37: 0.42
- CD630_03250 (cbiN) fold change in LL-37: 0.50
- CD630_03260 (cbiQ1) fold change in LL-37: 0.41
- CD630_03270 (cbiO) fold change in LL-37: 0.40
- CD630_03580 fold change in LL-37: 3.38
- CD630_03830 fold change in LL-37: 2.58
- CD630_03901 fold change in LL-37: 0.43
- CD630_04090 fold change in LL-37: 0.44
- CD630_04440 (ortB) fold change in LL-37: 2.09
- CD630_04670 fold change in LL-37: 3.43
- CD630_04780 (spaF) fold change in LL-37: 3.43
- CD630_04800 (spaG) fold change in LL-37: 2.29
- CD630_04890 fold change in LL-37: 2.26
- CD630_04900 fold change in LL-37: 4.13
- CD630_04960 fold change in LL-37: 4.13
- CD630_04970 fold change in LL-37: 3.86
- CD630_04980 fold change in LL-37: 4.13
- CD630_05000 fold change in LL-37: 3.61
- CD630_05060 fold change in LL-37: 3.54
- CD630_05100 fold change in LL-37: 3.07
- CD630_05101 fold change in LL-37: 3.31
- CD630_05102 fold change in LL-37: 3.35
- CD630_05103 fold change in LL-37: 3.27
- CD630_05490 fold change in LL-37: 4.74
- CD630_05500 fold change in LL-37: 5.52
- CD630_05670 fold change in LL-37: 0.44
- CD630_05770 fold change in LL-37: 2.96
- CD630_05780 fold change in LL-37: 0.47
- CD630_05790 fold change in LL-37: 0.40
- CD630_06140 fold change in LL-37: 0.43
- CD630_06240 fold change in LL-37: 0.45
- CD630_07290 (gcvH) fold change in LL-37: 2.23
- CD630_08450 fold change in LL-37: 0.40
- CD630_08530 (oppB) fold change in LL-37: 3.02
- CD630_08570 (oppF) fold change in LL-37: 2.88
- CD630_09080 fold change in LL-37: 0.23
- CD630_09170 fold change in LL-37: 0.45
- CD630_09260 fold change in LL-37: 2.36
- CD630_09340 fold change in LL-37: 0.39
- CD630_09360 fold change in LL-37: 0.28
- CD630_09950 (serA) fold change in LL-37: 0.23
- CD630_09960 fold change in LL-37: 0.24
- CD630_10280 fold change in LL-37: 0.48
- CD630_10540 (bcd2) fold change in LL-37: 2.94
- CD630_10550 (etfB3) fold change in LL-37: 3.07
- CD630_10560 (etfA3) fold change in LL-37: 3.22
- CD630_10570 (crt2) fold change in LL-37: 2.97
- CD630_10580 (hbd) fold change in LL-37: 3.51
- CD630_10590 (thlA1) fold change in LL-37: 3.56
- CD630_10850 fold change in LL-37: 2.17
- CD630_10860 fold change in LL-37: 2.54
- CD630_10980 fold change in LL-37: 2.17
- CD630_11261 fold change in LL-37: 0.42
- CD630_11540 fold change in LL-37: 0.40
- CD630_11710 (etfB4) fold change in LL-37: 0.45
- CD630_12382 fold change in LL-37: 5.60
- CD630_12400 (vanZ) fold change in LL-37: 28.43
- CD630_12700 fold change in LL-37: 0.45
- CD630_13450 fold change in LL-37: 0.46
- CD630_13460 fold change in LL-37: 0.50
- CD630_13610 fold change in LL-37: 0.37
- CD630_13640 fold change in LL-37: 0.40
- CD630_13720 fold change in LL-37: 0.48
- CD630_13900 fold change in LL-37: 2.35
- CD630_14240 fold change in LL-37: 2.97
- CD630_14890 (metN) fold change in LL-37: 0.32
- CD630_14900 (met I) fold change in LL-37: 0.32
- CD630_15100 fold change in LL-37: 2.24
- CD630_15120 (panC) fold change in LL-37: 2.15
- CD630_15470 (hisZ) fold change in LL-37: 2.92
- CD630_15490 (hisC) fold change in LL-37: 2.86
- CD630_15500 (hisB) fold change in LL-37: 3.12
- CD630_15510 (hisH) fold change in LL-37: 3.29
- CD630_15520 (hisA) fold change in LL-37: 2.80
- CD630_15540 (hisI) fold change in LL-37: 3.10
- CD630_15560 fold change in LL-37: 2.16
- CD630_15660 (ilvB) fold change in LL-37: 2.01
- CD630_15800 (hom2) fold change in LL-37: 0.49
- CD630_16070 fold change in LL-37: 30.25
- CD630_16090 fold change in LL-37: 30.62
- CD630_16100 fold change in LL-37: 64.45
- CD630_16110 fold change in LL-37: 34.77
- CD630_16120 fold change in LL-37: 3.18
- CD630_16130 (cotA) fold change in LL-37: 2.18
- CD630_16170 (clnR) fold change in LL-37: 186.82
- CD630_16180 (clnA) fold change in LL-37: 202.99
- CD630_16190 (clnB) fold change in LL-37: 192.16
- CD630_16200 fold change in LL-37: 2.15
- CD630_16310 (sodA) fold change in LL-37: 2.59
- CD630_16590 fold change in LL-37: 2.69
- CD630_16632 fold change in LL-37: 0.32
- CD630_16740 fold change in LL-37: 2.47
- CD630_16990 (ribE) fold change in LL-37: 4.23
- CD630_17000 (ribD) fold change in LL-37: 3.65
- CD630_17021 (thiS) fold change in LL-37: 2.41
- CD630_17151 fold change in LL-37: 2.24
- CD630_17170 fold change in LL-37: 2.07
- CD630_17452 fold change in LL-37: 0.34
- CD630_17540 fold change in LL-37: 0.42
- CD630_17880 fold change in LL-37: 2.48
- CD630_18020 fold change in LL-37: 3.05
- CD630_18270 fold change in LL-37: 0.47
- CD630_18470 fold change in LL-37: 0.36
- CD630_18860 fold change in LL-37: 0.41
- CD630_18870 (csfU) fold change in LL-37: 5.34
- CD630_18880 (rsiU) fold change in LL-37: 3.69

From paper PMC6117091, “The C. difficile clnRAB operon initiates adaptations to the host environment in response to LL-37” (PLoS Pathogens, 2018)
